Source: ChEMBL document CHEMBL1201862, “PubChem BioAssay data set” (2004)
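Tested at 5 concentrations; 48 h exposure; 96-well plates; endpoints linearly interpolated, else capped at highest concentration. GI50 marks 50% less growth.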 Activity calls are given as the source filed them. No stated cut-off is given here; in the data, active = GI50 up to about 1.1 µM and inactive = higher.

Columns and labels:
Test in all cases: NCI-60 cell line screen, 48 h
[1] = system: ACHN
[2] = system: CCRF-CEM
[3] = system: COLO 205
[4] = system: HCT-116
[5] = system: HOP-62
[6] = system: HT-29
[7] = system: MDA-N
[8] = system: NCI-H226
[9] = system: OVCAR-3
[10] = system: RXF 393
[11] = system: SF-268
[12] = system: SW-620
[13] = system: T47D
[14] = system: U-251
[15] = system: UACC-257
[16] = system: UACC-62
[17] = system: HL-60
[18] = system: NCI-H522
[19] = system: UO-31
[20] = system: Hs-578T

O=C1C2=Cc3ccccc3OC2(O)Oc2cc3ccccc3cc21 (configuration not stated)
GI50 [1]: 87.9 µM (inactive) | GI50 [2]: > 100 µM (inactive) | GI50 [3]: > 100 µM (inactive) | GI50 [4]: > 100 µM (inactive) | GI50 [5]: > 100 µM (inactive) | GI50 [6]: > 100 µM (inactive) | GI50 [7]: > 100 µM (inactive) | GI50 [8]: 56.1 µM (inactive) | GI50 [9]: 57.8 µM (inactive) | GI50 [10]: 58.1 µM (inactive) | GI50 [11]: 36.1 µM (inactive) | GI50 [12]: > 100 µM (inactive) | GI50 [13]: > 100 µM (inactive) | GI50 [14]: 50.9 µM (inactive) | GI50 [15]: > 100 µM (inactive) | GI50 [16]: > 100 µM (inactive)

O=C(NNCc1ccccc1O)c1ccccc1O
GI50 [1]: 5.12 µM (inactive) | GI50 [2]: 0.735 µM (active) | GI50 [3]: 7.93 µM (inactive) | GI50 [4]: 3.1 µM (inactive) | GI50 [17]: 0.495 µM (active) | GI50 [5]: 7.52 µM (inactive) | GI50 [6]: 9.38 µM (inactive) | GI50 [7]: 7.57 µM (inactive) | GI50 [8]: 24 µM (inactive) | GI50 [18]: 2.28 µM (inactive) | GI50 [9]: 0.766 µM (active) | GI50 [10]: 25.2 µM (inactive) | GI50 [12]: 3.48 µM (inactive) | GI50 [13]: 3.48 µM (inactive) | GI50 [14]: 5.75 µM (inactive) | GI50 [15]: 29.2 µM (inactive) | GI50 [16]: 5.42 µM (inactive) | GI50 [19]: 1.92 µM (inactive)

O=S(=O)(O)CCS [MESNA]
GI50 [1]: > 100 µM (inactive) | GI50 [2]: > 100 µM (inactive) | GI50 [3]: > 100 µM (inactive) | GI50 [4]: > 100 µM (inactive) | GI50 [5]: > 100 µM (inactive) | GI50 [6]: > 100 µM (inactive) | GI50 [7]: > 100 µM (inactive) | GI50 [8]: > 100 µM (inactive) | GI50 [18]: > 100 µM (inactive) | GI50 [9]: > 100 µM (inactive) | GI50 [10]: > 100 µM (inactive) | GI50 [11]: > 100 µM (inactive) | GI50 [12]: > 100 µM (inactive) | GI50 [13]: > 100 µM (inactive) | GI50 [14]: > 100 µM (inactive) | GI50 [15]: > 100 µM (inactive) | GI50 [16]: > 100 µM (inactive) | GI50 [19]: > 100 µM (inactive)

C[C@]12CCC(N3CCCC3)CC1=CC[C@@H]1[C@@H]2CC[C@]2(C)C(O)[C@H](n3ccnc3)C[C@@H]12 (some centres not stated)
GI50 [1]: 36.7 µM (inactive) | GI50 [2]: 15.7 µM (inactive) | GI50 [3]: 30.3 µM (inactive) | GI50 [4]: 38.1 µM (inactive) | GI50 [17]: 5.58 µM (inactive) | GI50 [6]: 5.85 µM (inactive) | GI50 [20]: > 10 µM (inactive) | GI50 [7]: 44.2 µM (inactive) | GI50 [8]: > 100 µM (inactive) | GI50 [18]: 49.9 µM (inactive) | GI50 [9]: 32.3 µM (inactive) | GI50 [10]: 17.4 µM (inactive) | GI50 [11]: > 10 µM (inactive) | GI50 [12]: 45.7 µM (inactive) | GI50 [14]: 75.9 µM (inactive) | GI50 [15]: 38.6 µM (inactive) | GI50 [16]: 32.1 µM (inactive) | GI50 [19]: 44.6 µM (inactive)

Cc1nc2cc3ccccc3cc2[nH]c1=O
GI50 [2]: 51.2 µM (inactive) | GI50 [3]: > 100 µM (inactive) | GI50 [4]: > 100 µM (inactive) | GI50 [17]: > 100 µM (inactive) | GI50 [5]: 71.6 µM (inactive) | GI50 [6]: > 100 µM (inactive) | GI50 [7]: > 100 µM (inactive) | GI50 [8]: 53.2 µM (inactive) | GI50 [18]: 59.4 µM (inactive) | GI50 [9]: 68.1 µM (inactive) | GI50 [10]: 47.5 µM (inactive) | GI50 [11]: 39.3 µM (inactive) | GI50 [12]: > 100 µM (inactive) | GI50 [13]: 55.2 µM (inactive) | GI50 [14]: 55.1 µM (inactive) | GI50 [15]: > 100 µM (inactive) | GI50 [16]: 36.3 µM (inactive) | GI50 [19]: 54.8 µM (inactive)

CN1C(=O)N(c2nc3ccccc3[nH]2)C(C)(C)C1=O
GI50 [1]: > 100 µM (inactive) | GI50 [2]: > 100 µM (inactive) | GI50 [3]: > 100 µM (inactive) | GI50 [4]: > 100 µM (inactive) | GI50 [17]: > 100 µM (inactive) | GI50 [5]: > 100 µM (inactive) | GI50 [6]: > 100 µM (inactive) | GI50 [8]: > 100 µM (inactive) | GI50 [18]: > 100 µM (inactive) | GI50 [9]: > 100 µM (inactive) | GI50 [10]: > 100 µM (inactive) | GI50 [11]: > 100 µM (inactive) | GI50 [12]: > 100 µM (inactive) | GI50 [14]: > 100 µM (inactive) | GI50 [15]: > 100 µM (inactive) | GI50 [16]: > 100 µM (inactive) | GI50 [19]: > 100 µM (inactive)

CCOC(=O)/C(ON)=C(/CC/C(C(=O)OC)=C(\ON)C(=O)OCC)C(=O)OC
GI50 [1]: > 100 µM (inactive) | GI50 [2]: > 100 µM (inactive) | GI50 [3]: > 100 µM (inactive) | GI50 [4]: > 100 µM (inactive) | GI50 [17]: > 100 µM (inactive) | GI50 [5]: > 100 µM (inactive) | GI50 [6]: > 100 µM (inactive) | GI50 [8]: > 100 µM (inactive) | GI50 [18]: > 100 µM (inactive) | GI50 [9]: > 100 µM (inactive) | GI50 [10]: > 100 µM (inactive) | GI50 [11]: > 100 µM (inactive) | GI50 [12]: > 100 µM (inactive) | GI50 [14]: > 100 µM (inactive) | GI50 [15]: > 100 µM (inactive) | GI50 [16]: > 100 µM (inactive) | GI50 [19]: > 100 µM (inactive)

COC(=O)N1C[C@@]2(C=CC3(CC2)OCCO3)c2ccccc21
GI50 [1]: > 100 µM (inactive) | GI50 [2]: 45.2 µM (inactive) | GI50 [3]: > 100 µM (inactive) | GI50 [4]: > 100 µM (inactive) | GI50 [17]: 11.2 µM (inactive) | GI50 [5]: > 100 µM (inactive) | GI50 [6]: 28.2 µM (inactive) | GI50 [7]: 51.1 µM (inactive) | GI50 [9]: > 100 µM (inactive) | GI50 [12]: 40.8 µM (inactive) | GI50 [13]: > 100 µM (inactive) | GI50 [14]: 41.1 µM (inactive) | GI50 [15]: 71.3 µM (inactive) | GI50 [16]: 65.5 µM (inactive) | GI50 [19]: > 100 µM (inactive)
